From ChEMBL document CHEMBL3425446, “Isolation, semi-synthesis and bio-evaluation of spatane derivatives from the brown algae Stoechospermum marginatum” (Bioorg Med Chem Lett, 2015) come the findings set out here.

≈ marks a conversion by molar mass, not a printed value. Calls of active or inactive are those of the source.

The nature of assay [1]: Cytotoxicity against mouse B16F10 cells assessed as decrease in cell number after 24 hrs by MTT assay. The assay is classed as functional, cell-based. The conditions noted are these: B16-F10, 24 h. For orientation: Tetrazolium dyes change colour on reduction, which living cells bring about.
Assay [2] relates to Micrococcus luteus. Put plainly: Antibacterial activity against Micrococcus luteus assessed as compound concentration required to complete growth inhibition at 8 hrs by tube dilution method. The assay is classed as functional.
The subject of assay [3] is Klebsiella pneumoniae. Put plainly: Antibacterial activity against Klebsiella pneumoniae assessed as growth inhibition at 0.5 mg/ml after 24 hrs by well diffusion method. The assay is classed as functional. The conditions noted are these: read-out: DIZ.
Assay [4] concerns Micrococcus luteus. Put plainly: Antibacterial activity against Micrococcus luteus assessed as growth inhibition at 0.5 mg/ml after 24 hrs by well diffusion method. The assay is classed as functional. Particulars: read-out: DIZ. In general terms: A growth-free zone around the sample is the usual read-out of agar diffusion tests.
A short description of assay [5]: Cytotoxicity against human HL60 cells assessed as decrease in cell number after 24 hrs by MTT assay. The assay is classed as functional, cell-based. The conditions noted are these: HL-60, 24 h.
Assay [6] deals with Bacillus subtilis. Briefly: Antibacterial activity against Bacillus subtilis assessed as compound concentration required to complete growth inhibition at 8 hrs by tube dilution method. The assay is classed as functional.
The nature of assay [7]: Cytotoxicity against human U937 cells assessed as decrease in cell number after 24 hrs by MTT assay. The assay is classed as functional, cell-based. Particulars: U-937, 24 h.
Another assay deals with Aspergillus niger. Put plainly: Antifungal activity against Aspergillus niger assessed as growth inhibition at 0.5 mg/ml after 48 hrs by well diffusion method. The assay is classed as functional, organism-based.
The test system of the next assay is Aspergillus terreus. Briefly: Antifungal activity against Aspergillus terreus assessed as growth inhibition at 0.5 mg/ml after 48 hrs by well diffusion method. The assay is classed as functional, organism-based.
The test system of assay [8] is Bacillus subtilis. Briefly: Antibacterial activity against Bacillus subtilis assessed as growth inhibition at 0.5 mg/ml after 24 hrs by well diffusion method. The assay is classed as functional. Particulars: read-out: DIZ.
The subject of assay [9] is Escherichia coli. Briefly: Antibacterial activity against Escherichia coli assessed as compound concentration required to complete growth inhibition at 8 hrs by tube dilution method. The assay is classed as functional.
Assay [10] deals with THP-1. Put plainly: Cytotoxicity against human THP1 cells assessed as decrease in cell number after 24 hrs by MTT assay. Particulars: THP-1, 24 h. The assay is classed as functional, cell-based.
Assay [11] concerns COLO 205. Briefly: Cytotoxicity against human COLO205 cells assessed as decrease in cell number after 24 hrs by MTT assay. The assay is classed as functional, cell-based. Particulars: COLO 205, 24 h.
In assay [12] the test system is Escherichia coli. Put plainly: Antibacterial activity against Escherichia coli assessed as growth inhibition at 0.5 mg/ml after 24 hrs by well diffusion method. The assay is classed as functional. Particulars: read-out: DIZ.
Another assay deals with Aspergillus fumigatus. Put plainly: Antifungal activity against Aspergillus fumigatus assessed as growth inhibition at 0.5 mg/ml after 48 hrs by well diffusion method. The assay is classed as functional, organism-based.
In assay [13] the test system is Klebsiella pneumoniae. Briefly: Antibacterial activity against Klebsiella pneumoniae assessed as compound concentration required to complete growth inhibition at 8 hrs by tube dilution method. The assay is classed as functional.
Assay [14] relates to COLO 205. Put plainly: Cytotoxicity against human COLO205 cells assessed as growth inhibition at 200 ug/ml after 24 hrs by MTT assay. The assay is classed as functional, cell-based.
The test system of another assay is HL-60. Put plainly: Cytotoxicity against human HL60 cells assessed as growth inhibition at 200 ug/ml after 24 hrs by MTT assay. The assay is classed as functional, cell-based.
The subject of a further assay is B16-F10. Put plainly: Cytotoxicity against mouse B16F10 cells assessed as growth inhibition at 200 ug/ml after 24 hrs by MTT assay. The assay is classed as functional, cell-based.
For the next assay, the system named is U-937. Briefly: Cytotoxicity against human U937 cells assessed as growth inhibition at 200 ug/ml after 24 hrs by MTT assay. The assay is classed as functional, cell-based.
For assay [15], the system named is THP-1. Briefly: Cytotoxicity against human THP1 cells assessed as growth inhibition at 200 ug/ml after 24 hrs by MTT assay. The assay is classed as functional, cell-based.

In general, IC50 refers to the point on the concentration scale where inhibition reaches its midpoint. What is called MIC is the smallest concentration in the dilution series that meets the test's criterion for growth inhibition. `C=C(C(=O)/C=C/C(C)=O)[C@@H]1CC(=O)[C@@]2(C)[C@@H]1[C@@H]1[C@H](C)CC[C@@H]12`: the IC50 in [1] came out at 3.62 µg/mL (≈ 12.1 µM); in [5], 48.4 µg/mL (≈ 161 µM); in [7] it was 7.52 µg/mL (≈ 25 µM); in the assay on THP-1 [10], 18.1 µg/mL (≈ 60.3 µM); in the assay on COLO 205 [11], 32 µg/mL (≈ 107 µM). Moreover, the MIC in the assay with Micrococcus luteus [2], in the assay on Bacillus subtilis [6], with Escherichia coli [9] and in the assay with Klebsiella pneumoniae [13] was 50 µg/mL (≈ 166 µM) in each case. For the same compound, the zone of inhibition at 500 µg/mL with Klebsiella pneumoniae [3] amounted to 11.3 mm; in the assay with Micrococcus luteus [4], 0 mm; with Bacillus subtilis [8] it was 10.3 mm; in the assay on Escherichia coli [12], 11 mm. Besides, the zone of inhibition in the assay on Aspergillus niger amounted to 19.3 mm; in the assay on Aspergillus terreus, 19.3 mm; in the assay on Aspergillus fumigatus, 22 mm.
For the compound `C=C(C(/C=C/C(C)(O)COC(C)=O)OC(C)=O)[C@@H]1C[C@@H](OC(C)=O)[C@@]2(C)[C@@H]1[C@@H]1[C@H](C)CC[C@@H]12` (some centres not stated), the IC50 in assay [1] came to 54.1 µg/mL (≈ 117 µM); in assay [7] it was 38.4 µg/mL (≈ 83.1 µM); in the assay on THP-1 [10], 188 µg/mL (≈ 407 µM). In addition, the MIC was determined as 100 µg/mL (≈ 216 µM) in the assay on Micrococcus luteus [2], 100 µg/mL (≈ 216 µM) with Bacillus subtilis [6], 100 µg/mL (≈ 216 µM) in the assay on Escherichia coli [9] and 200 µg/mL (≈ 432 µM) in the assay with Klebsiella pneumoniae [13]. Further, the zone of inhibition at 500 µg/mL with Klebsiella pneumoniae [3] is 16.3 mm; in the assay on Micrococcus luteus [4] it was 17.3 mm; in the assay with Bacillus subtilis [8], 18 mm; with Escherichia coli [12], 21.3 mm. Moreover, the “growth inhibition (GI)” value in the assay with COLO 205 [14] and in the assay with HL-60 was “inactive” each time.
As to `C=C(CC(=O)C=C(C)C)[C@@H]1CC(=O)[C@@]2(C)[C@@H]1[C@@H]1[C@H](C)CC[C@@H]12`, the MIC in the assay on Micrococcus luteus [2] was found to be 200 µg/mL (≈ 666 µM); in the assay on Bacillus subtilis [6], 400 µg/mL (≈ 1330 µM); with Escherichia coli [9], 200 µg/mL (≈ 666 µM); in the assay with Klebsiella pneumoniae [13], 200 µg/mL (≈ 666 µM). The zone of inhibition at 500 µg/mL in the assay on Klebsiella pneumoniae [3] came to 12.7 mm; with Micrococcus luteus [4], 11.3 mm; in the assay on Bacillus subtilis [8] it was 0 mm; in the assay on Escherichia coli [12], 10 mm. Further, the IC50 is 47.5 µg/mL (≈ 158 µM) in assay [7], 113 µg/mL (≈ 377 µM) in the assay on THP-1 [10] and 167 µg/mL (≈ 557 µM) in the assay with COLO 205 [11]. Also, the “growth inhibition (GI)” value with B16-F10 and in the assay with HL-60 was “inactive” each time.
For the compound `C=C(C(O)/C=C/C(C)(O)CO)[C@@H]1C[C@@H](O)[C@@]2(C)[C@@H]1[C@@H]1[C@H](C)CC[C@@H]12` (mixture of isomers), the figures for the IC50 (in assay [1]; in the assay on THP-1 [10]; in the assay with COLO 205 [11]) were 196 µg/mL, 55.6 µg/mL and 17.4 µg/mL, respectively. The MIC in the assay on Micrococcus luteus [2], with Bacillus subtilis [6], in the assay on Escherichia coli [9] and with Klebsiella pneumoniae [13] was 200 µg/mL throughout. Further, the zone of inhibition at 500 µg/mL in the assay with Klebsiella pneumoniae [3] turned out to be 12.3 mm; with Micrococcus luteus [4] it was 12.3 mm; with Bacillus subtilis [8], 12.7 mm; in the assay with Escherichia coli [12], 11.7 mm. The “growth inhibition (GI)” value in the assay with U-937 and in the assay with HL-60 was “inactive” throughout.
In the case of `C=C(C(O)/C=C/C(C)(O)COC(C)=O)[C@@H]1C[C@@H](O)[C@@]2(C)[C@@H]1[C@@H]1[C@H](C)CC[C@@H]12` (mixture of isomers), the IC50 worked out at 99.8 µg/mL in assay [1], 144 µg/mL in assay [7] and 67 µg/mL in the assay with THP-1 [10]. Further, the MIC in the assay with Micrococcus luteus [2] was 400 µg/mL; in the assay on Bacillus subtilis [6] it was 200 µg/mL; in the assay on Escherichia coli [9] it was 200 µg/mL; with Klebsiella pneumoniae [13] it was 200 µg/mL. Further, the zone of inhibition at 500 µg/mL with Klebsiella pneumoniae [3] amounted to 12.3 mm; with Micrococcus luteus [4] it was 12 mm; in the assay on Bacillus subtilis [8], 10.3 mm; in the assay on Escherichia coli [12] it was 13 mm. For the same compound, the “growth inhibition (GI)” value in the assay on COLO 205 [14] and in the assay with HL-60 was “inactive” throughout.
As for `C=C(C(/C=C/C(C)(O)COC(C)=O)OC(C)=O)[C@@H]1C[C@@H](O)[C@@]2(C)[C@@H]1[C@@H]1[C@H](C)CC[C@@H]12` (mixture of isomers), the 50% inhibitory concentration (IC50) in assay [1] was determined as 82 µg/mL. For the same compound, the MIC with Micrococcus luteus [2] was determined as 100 µg/mL; with Bacillus subtilis [6] it was 100 µg/mL; with Escherichia coli [9], 100 µg/mL; in the assay with Klebsiella pneumoniae [13], 200 µg/mL. Further, the zone of inhibition at 500 µg/mL in the assay with Klebsiella pneumoniae [3] stood at 12.7 mm; in the assay on Micrococcus luteus [4] it was 12.3 mm; with Bacillus subtilis [8], 11.7 mm; in the assay on Escherichia coli [12], 14.3 mm. The “growth inhibition (GI)” value in the assay on COLO 205 [14], in the assay with THP-1 [15], in the assay on U-937 and in the assay with HL-60 was “inactive” throughout.
As for `C[C@@H]1C[C@@H]([C@H](O)CC2CC(=O)NC(=O)C2)C(=O)[C@@H](C)C1` [CYCLOHEXIMIDE], the zone of inhibition with Aspergillus niger is 17.7 mm; in the assay on Aspergillus terreus it was 15.7 mm; with Aspergillus fumigatus it was 16.3 mm.
For `CC(=O)N1CCN(c2ccc(OCC3COC(Cn4ccnc4)(c4ccc(Cl)cc4Cl)O3)cc2)CC1` (configuration not stated) [KETOCONAZOLE], in that order: 22.7 mm, 20 mm and 20.7 mm.
